Results taken from patent publication US9133235B2, “Macrocyclic antagonists of the motilin receptor for treatment of gastrointestinal dysmotility disorders” (Ocera Therapeutics, Inc., priority 2006, dated 2015).
Read-outs that look alike come from different tables or passages of the source.

What was measured:
[1] = Plasma concentrations of compound 552 in beagle dogs during the CID study; format: in vivo; settings: male, dog, iv; for AUC(0-t): read-out: average AUC0-t (converted)
Protocol: The test article No. 2 (compound 552) was intravenously infused via an implanted catheter over 45 minutes to all the animals in Group 4 four days before the start of TA1 (irinotecan) treatment and throughout the 28-day study period. […] The daily dosage (i.e. 5.0, 15.0 and 5.0 mg/kg/day for Groups 2 to 4 respectively) was administered by two equal doses (i.e. 2.5, 7.5 and 2.5 mg/kg/occasion for Groups 2 to 4 respectively) which were separate by at least 6 h. Each dose was infused at a dose volume of 10 mL/kg/h. The vehicle for compound 552 was administered to all dogs in Group 5 by following the same dosing procedures and regimen for compound 552 administration for 23 days (from Day 6 to Day 28). The actual volume infused was calculated and adjusted based on the most recent practical body weight of each animal. The syringes/bags were changed at appropriate intervals as necessary and the weights recorded prior to the start and at the end of the infusion.
Body weights were recorded for all animals once prior to group assignment, and approximately one week prior to initiation of treatment. Body weights were recorded for all animals up to 1 day prior to dosing and twice weekly thereafter during the treatment/observation periods, as well as terminally prior to necropsy (fasted). Food consumption was measured daily during the week prior to treatment and throughout the treatment/observation periods. A series of blood samples (approximately 2.0 mL each) were removed from each dog in Groups 2 and 3 after the first (am) infusion on the first day of treatment with compound 552 and after the second (pm) infusion on the last day of treatment with compound 552. (Note: the second (pm) infusion on the first day of treatment with compound 552 was performed after completion of the last blood sampling). For this purpose, each dog was bled by venipuncture and the samples collected into tubes containing the anticoagulant, K2 EDTA. Tubes were placed on wet ice pending processing. On each occasion, samples were collected prior to the start of infusion, 5, 15, 30, 45, 50, 65, 95, 135 minutes, 3 and 6 hours after the start of infusion of compound 552. Following collection, the samples were centrifuged at approximately 1500×g, approximately 4° C., for at least 10 minutes and the resulting plasma recovered and dispensed into two aliquots and stored frozen (at approximately −80° C.) pending shipment.
Plasma concentrations of compound 552 in male beagle dogs receiving low and high intravenous doses of compound 552 as part of the above experiment were determined. Plasma samples were prepared for analysis by solid phase extraction and analyzed by LC-MS/MS. […] The average AUC0-t was similar on the first (78,233 ng·min/mL) and last day (83,047 ng·min/mL) of dosing for the low dose group (2.5 mg/kg/occasion) and was proportionally higher on the first day (246,073 ng·min/mL) of dosing for the high dose group (7.5 mg/kg/occasion).

[2] = system: isolated colonic segments from the shrew; test: Contractile activity of isolated muscle strips of the shrew
Text: J. Evaluation of Contractile Activity of Isolated Muscle Strips from the Stomach, Duodenum and Colon of the Shrew.
Motilin (threshold concentration of 10^−8 M) enhances contractions induced by electrical field stimulation (4 Hz) by a post-ganglionic interaction with the cholinergic neurotransmission. At higher concentrations, motilin causes a tonic contraction interacting directly with the antral smooth muscle. Analogously, the effects of motilin and [Nle^13]-motilin (Calbiochem), as selective agonists of the motilin receptor, on smooth muscle strips isolated from the gastric antrum, the circular muscle of the duodenum and the colon of the shrew were investigated. Immunohistochemical studies have shown that endocrine cells in the GI tract of the musk shrew express motilin (Kanamori, Y.; Nakazawa, S.; Kitoh, J.; Hoshino, M. The distribution of endocrine cells in the mucosa of the gastrointestinal tract of the house musk shrew, Suncus murinus (Insectivora). Cell. Tissue Res. 1989, 258, 365-71; Kitamura, N.; Yamada, J.; Watanabe, T.; Yamashita, T. An immunohistochemical study on the distribution of endocrine cells in the gastrointestinal tract of the musk shrew, Suncus murinus. Histol Histopathol. 1990, 5, 83-88.) Shrews were fasted for 8-10 h, euthanized with CO2 inhalation, and the stomach, the duodenum and colon isolated immediately and placed in Krebs buffer aerated with 95% O2 and 5% CO2. Specifically, mucosa-free circular muscle strips were isolated from the antral region, the duodenum and the colon using a dissecting microscope. Isometric contractions were recorded in organ baths following equilibration at optimal tension using the PowerLab data acquisition system. […]
To define the effect of test compounds on different regions of the GI tract of the shrew (gastric antrum, […] and colon) and to evaluate the antagonist affinity of test compounds in this model system, the ability of varying concentrations of test compound to antagonize the motilin or [Nle^13]-motilin-induced contractions was measured in organ baths as described above. […]

Cmax ([1]; 2.5 mg/kg, 2.5 mg/kg 45-min infusion, first day of treatment): ~1500 ng/mL | Cmax ([1]; 2.5 mg/kg, 2.5 mg/kg 45-min infusion, last day of treatment): ~1800 ng/mL | AUC(0-t) ([1]; 2.5 mg/kg, low dose group 2.5 mg/kg/occasion, first day): 1300 ng·h/mL | AUC(0-t) ([1]; 2.5 mg/kg, low dose group 2.5 mg/kg/occasion, last day): 1380 ng·h/mL | Cmax ([1]; 7.5 mg/kg, 7.5 mg/kg 45-min infusion, first day of treatment): ~3400 ng/mL | Cmax ([1]; 7.5 mg/kg, 7.5 mg/kg 45-min infusion, last day of treatment): ~5000 ng/mL | AUC(0-t) ([1]; 7.5 mg/kg, high dose group 7.5 mg/kg/occasion, first day): 4100 ng·h/mL | AUC(0-t) ([1]; 7.5 mg/kg, high dose group 7.5 mg/kg/occasion, last day, one animal with particularly high AUC): 6350 ng·h/mL
Structure (SMILES): CCC[C@@H]1NC(=O)[C@@H](C(C)C)NC(=O)[C@@H](Cc2ccc(O)c(Cl)c2)N[C@@H](C)COc2ccccc2CCCNC1=O [Compound 552]
effect on contractile response to 0.3 μM [Nle^13]-motilin ([2]; 0.01 μM-10 μM, FIG. 18): dose-dependent inhibition | effect on contractile response to 0.3 μM motilin ([2]; 0.01 μM-10 μM, FIG. 18): dose-dependent inhibition | change in basal contractile activity ([2]; data not shown): did not cause a significant change
